Experimental data from patent publication US20120308567A1, “USE OF TYROSINE KINASE INHIBITORS FOR TREATMENT OF PROLACTINOMA” (CEDARS-SINAI MEDICAL CENTER, priority 2010, published 2012).
“Also recorded” adds a separate entry of the source.

Experiments:
[1] = tested on: GH3 cells stably expressing HER2CA; assay: Realtime PCR of PRL and GH mRNA in GH3 stable transfectants; assay type: cell-based, rat; settings: for suppression of PRL expression: Her2CA-GH3 cells
Protocol: A. […] C. GH and PRL secretion in the culture medium determined by RIA. Hormone secretion levels were normalized for cell numbers, Values are mean±SEM. *p<0.05, **p<0.01. […] GH3 rat lacto-somatotroph tumor cells secreting PRL and GH were purchased from the American Type Culture Collection. HER2CA cells were generated by transfection with […]) purchased from Addgene (Addgene plasmid 16259). Stable colonies were selected in the presence of 500 μg/ml G418 (Invitrogen). A vector control cell line pcDNA3 was simultaneously established by transfecting pcDNA3 that lacked inserted cDNA. […] After synchronization by serum starvation (medium containing 0.2% bovine serum albumin for 24 h), cells with treatment agents was grown in fresh serum-depleted medium (0.2% bovine serum albumin), and samples collected at the indicated times. Total RNA was extracted with Trizol reagent (Invitrogen) according to instructions of the manufacturer. The amount and the integrity of RNA were assessed by measurement of absorbance at 260 and 280 nm. Total RNA was reverse-transcribed into first-strand cDNA using iScript cDNA synthesis kit (Bio-Rad Laboratories, Inc.) according to the manufacturer. Quantitative PCR reactions were carried out in the iQ5 Multicolor Real-time PCR Detection System (Bio-Rad Laboratories, Inc.) as described (8). […] Primer sequences (Invitrogen) were [NT] rRNA forward ([…] rRNA reverse ([NT] (human (3-actin [NT] (human (3-actin […]).

[2] = tested on: HER2CA GH3 tumors; assay: HER2CA GH3 subcutaneous tumors in Wistar-Furth rats; assay type: in vivo, rat; settings: for suppression of postmortem tumor weight / suppression of serum PRL levels / HER2CA tumor volume: Wistar-Furth rats; for suppression of postmortem tumor weight / suppression of serum PRL levels: 100 mg/kg daily oral gavage; for HER2CA tumor volume: 100 mg/kg daily oral gavage from day 3 after inoculation, vehicle 924±48
Protocol: B-C. […] (B). Tumor weights were measured after euthanasia (C). Serum PRL levels were measured by RIA (D), and ex vivo Realtime PCR performed (E). Tumor volumes were calculated using the formula, π/6×large diameter×small diameter^2.
In accordance with Institutional Animal Care and Use Committee guidelines, 4-5 wk old female Wistar-Furth rats (Harlan Sprague Dawley, Inc.) were inoculated with pcDNA3 (n=6) or HER2CA (n=6) cells (3×10^6 cells/rat). Rats were fed with a commercial pelleted diet ad libitum and tap water. Tumor volumes were measured with a caliper and calculated using the formula, π/6×large diameter×small diameter^2 as previously described (8). […] 500 μl blood was collected twice for hormone assessment (before inoculation, 2 days after inoculation) by retro-orbital bleeding. This procedure was performed under isoflurane inhalational anesthesia via a nose cone connected to a rodent anesthesia machine (Kent Scientific Corporation). On the last treatment day (day 7), rats were euthanized within 3 h of drug administration. Cardiac blood was collected with 18-gauge syringes and tumors excised and weighed. Fragments of each tumor were fixed in formalin and embedded in paraffin for immunohistochemical staining, preserved in RNA later solution (Ambion) for subsequent RNA extraction and frozen in liquid nitrogen for subsequent protein extraction.
To evaluate in vivo effects of HER2 overexpression on lactosomatotroph tumor growth, HER2CA or pcDNA3 transfectants were inoculated subcutaneously into female Wistar-Furth rats. […] Next, the effects of lapatinib administration on tumor growth and hyperprolactinemia were examined. […] After euthanasia, tumors were excised and immediately weighed and processed.

[3] = tested on: EGF-induced HER2 and MAPK autophosphorylation; assay: Western blotting of EGF-induced ErbB signaling and intracellular PRL in HER2CA GH3 cells; assay type: cell-based, rat
Protocol: GH3 rat lacto-somatotroph tumor cells secreting PRL and GH were purchased from the American Type Culture Collection. HER2CA cells were generated by transfection with pcDNA3-HER2CA (V654E) purchased from Addgene (Addgene plasmid 16259). Stable colonies were selected in the presence of 500 μg/ml G418 (Invitrogen). A vector control cell line pcDNA3 was simultaneously established by transfecting pcDNA3 that lacked inserted cDNA. After selection and propagation of stable transfectants, cells were cultured in DMEM/F12 medium containing 15% horse serum, 2.5% FBS, penicillin/streptomycin, and 500 μg/m G418. After synchronization by serum starvation (medium containing 0.2% bovine serum albumin for ˜24 h), cells with treatment agents was grown in fresh serum-depleted medium (0.2% bovine serum albumin), and samples collected at the indicated times.
Proteins were separated on 4 to 12% NuPAGE Bis-Tris gels and electro-transferred for 3 h to polyvinylidene difluoride membranes (Invitrogen). Membranes were blocked for 1 h in 5% nonfat dry milk or 5% bovine serum albumin in TBS-T buffer, and incubated overnight with primary antibody. The following primary antibodies were used: anti-pErk1/2, anti-Erk1/2, anti-Akt, anti-pEGFR (Tyr1068), anti-EGFR, anti-pHER3/ErbB3 (Tyr1289), and anti-Cleaved Caspase-3 from Cell Signaling Technology, anti-pNeu (Tyr1248), anti-Neu (C-18), anti-HER3/ErbB3, anti-PRL, and anti-GAPDH from Santa Cruz Biotechnology, and anti-pAkt (Ser473) from Abcam. After washing with TBS-T, membranes were incubated with peroxidase-conjugated secondary antibody for 1 h (5% nonfat dry milk or 5% bovine serum albumin in TBS-T buffer).

[4] = tested on: estrogen induced pituitary lactotroph tumor; assay: Estrogen induced pituitary lactotroph tumor in Fischer-344 rats; assay type: in vivo, rat; settings: F344 rats
Protocol: 17β-estradiol-filled capsules or empty capsule were inoculated subcutaneously in F344 rats (4-5 weeks of age) for one month. A. Western blotting analysis was performed using collected pituitary or pituitary tumor. Next 17β-estradiol-filled capsules were inoculated subcutaneously in F344 rats (4-5 weeks of age) for 2 months. After capsule excision, oral vehicle or lapatinib was administered for 2 weeks. […] C. Tumor weights were measured after euthanasia. D. Serum PRL and GH levels were measured by RIA.
Next, 4-5 wk ovariectomized female Fishcer-344 rats (Harlan Sprague Dawley, Inc.) were s.c. implanted with an 17β-estradiol-filled […] brand capsule (Dow Corning Corp., Medical Grade Tubing Special; length, 3 cm; od, 0.125 in.; id, 0.062 in.) under isoflurane inhalational anesthesia. Two months thereafter, when serum PRL levels reached 3000 ng/ml, 17β-estradiol-filled capsules were extracted, and animals were treated with lapatinib (100 mg/kg) or vehicle (0.5% methylcellose, 0.5% tween80/PBS; 100 μl) via oral gavage twice a day for 2 weeks. 500 μl blood was collected for hormone assessment by retro-orbital bleeding under isoflurane inhalational anesthesia. On the last treatment day (day 14), rats were euthanized within 3 h of drug administration. Cardiac blood was collected and pituitary tumors excised and weighed. Fragments of each tumor were fixed in formalin and embedded in paraffin, preserved in RNA later solution, or frozen in liquid nitrogen.
Next, the inventors tested Fischer-344 rats treated with 17β-estradiol as a model for pituitary prolactinomas (24). […] The inventors then extracted the capsule, and initiated oral lapatinib or vehicle treatment for a subsequent 2 weeks.

[5] = 100 mg/kg oral gavage twice a day for 2 weeks

COc1cc2ncnc(Nc3ccc(F)c(Cl)c3)c2cc1OCCCN1CCOCC1 [gefitinib]
suppression of PRL expression [1]: ~50% | suppression of postmortem tumor weight [2]: ~30% | suppression of serum PRL levels [2]: ~40% | HER2CA tumor volume [2]: 695±63 mm^3

CS(=O)(=O)CCNCc1ccc(-c2ccc3ncnc(Nc4ccc(OCc5cccc(F)c5)c(Cl)c4)c3c2)o1 [lapatinib, Lapatinib]
PRL mRNA levels ([1]; HER2CA GH3 cells, 1 μM): more marked suppression | suppression of PRL expression [1]: ~70% | intracellular PRL levels ([3]; Western blotting): decreased | attenuation of Her1/EGFR and Her2/Neu signaling (HER2 and MAPK autophosphorylation) ([3]; pretreated 0.1-10 μM 45 min, EGF 5 nM 10 min): attenuated EGF-induced HER2 and MAPK autophosphorylation more markedly than gefitinib; also recorded: blocked | serum GH levels [4, 5]: not altered | suppression of serum PRL levels [4, 5]: ~35% | suppression of tumor weight ([4]; 100 mg/kg oral gavage twice a day for 2 weeks after capsule extraction): ~35% | pituitary tumor growth induced by estrogen ([4]; oral treatment for 2 weeks): attenuated | suppression of postmortem tumor weight [2]: ~40% | suppression of serum PRL levels [2]: ~50% | HER2CA tumor volume [2]: 549±45 mm^3 | change in Her2CA-GH3 tumor size ([2]; rats, after one week of treatment): −40%
